From ChEMBL document CHEMBL4316646, “Strepantibins A-C: Hexokinase II Inhibitors from a Mud Dauber Wasp Associated Streptomyces sp” (J Nat Prod, 2019)
Structures can show the parent of a compound that is named as a salt. The source made the active and inactive calls. The rule behind the calls is not given here.

What was measured:
PLC-PRF-5 = assay: Cytotoxicity against human PLC/PRF/5 cells assessed as reduction in cell viability by MTT assay; assay type: functional, cell-based
SMMC-7721 [1] = assay: Cytotoxicity against human SMMC7721 cells assessed as reduction in cell viability by MTT assay; assay type: functional, cell-based
HepG2 = assay: Cytotoxicity against human HepG2 cells assessed as reduction in cell viability by MTT assay; assay type: functional, cell-based
L02 = assay: Cytotoxicity against human LO2 cells assessed as reduction in cell viability by MTT assay; assay type: ADME, cell-based
Hexokinase-2 = molecular target: T1, Hexokinase-2 (Homo sapiens, UniProt P52789); assay: Inhibition of HK2 (unknown origin) using glucose-6-phosphate dehydrogenase as substrate preincubated for 10 mins followed by substrate addition
T1 sequence (P52789 whole entry): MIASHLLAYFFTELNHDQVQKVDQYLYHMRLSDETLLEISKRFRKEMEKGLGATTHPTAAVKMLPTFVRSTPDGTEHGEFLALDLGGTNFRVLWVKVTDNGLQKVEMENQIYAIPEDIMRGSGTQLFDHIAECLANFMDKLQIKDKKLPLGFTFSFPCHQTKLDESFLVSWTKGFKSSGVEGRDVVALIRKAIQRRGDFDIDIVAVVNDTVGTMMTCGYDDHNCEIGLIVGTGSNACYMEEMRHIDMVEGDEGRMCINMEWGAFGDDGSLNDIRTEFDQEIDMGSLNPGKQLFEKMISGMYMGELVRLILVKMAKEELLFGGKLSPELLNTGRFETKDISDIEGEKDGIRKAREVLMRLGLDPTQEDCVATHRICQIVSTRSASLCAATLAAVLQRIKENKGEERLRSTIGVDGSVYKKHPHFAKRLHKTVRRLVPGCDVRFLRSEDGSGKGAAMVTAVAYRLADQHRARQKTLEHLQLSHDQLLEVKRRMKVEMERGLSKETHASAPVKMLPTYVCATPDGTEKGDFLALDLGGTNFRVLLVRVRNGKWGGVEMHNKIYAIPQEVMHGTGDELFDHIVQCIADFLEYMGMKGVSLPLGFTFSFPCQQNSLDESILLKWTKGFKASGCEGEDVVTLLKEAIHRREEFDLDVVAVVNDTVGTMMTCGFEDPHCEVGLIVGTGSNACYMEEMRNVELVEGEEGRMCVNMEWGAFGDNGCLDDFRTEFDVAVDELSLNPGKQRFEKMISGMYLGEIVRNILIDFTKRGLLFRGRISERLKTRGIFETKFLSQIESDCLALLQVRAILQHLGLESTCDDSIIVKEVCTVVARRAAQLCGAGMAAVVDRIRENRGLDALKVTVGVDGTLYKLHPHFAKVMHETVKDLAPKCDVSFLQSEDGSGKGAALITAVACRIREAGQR

SMMC-7721 [2] = assay: Induction of apoptosis in human SMMC7721 cells assessed as chromatin […] at 0.5 to 8 uM measured after 24 hrs by DAPI staining based fluorescence microscopic analysis; assay type: functional, cell-based
SMMC-7721 [3] = assay: Induction of apoptosis in human SMMC7721 cells assessed as formation of apoptotic bodies at 0.5 to 8 uM measured after 24 hrs by DAPI staining based fluorescence microscopic analysis; assay type: functional, cell-based
[4] = compound: COC1=C(c2ccccc2)C(=O)[C@@](O)(CC(C)=O)C(c2ccccc2)=C1; assay: (§1) Competitive-inhibition of HK2 (unknown origin) assessed as Km at 10 uM using varying levels of glucose-6-phosphate dehydrogenase as substrate by Lineweaver-burk plot analysis; settings: Homo sapiens
[5] = compound: CC1(C)N=C2C(c3ccccc3)=CC(=O)C(c3ccccc3)=C2O1; assay: as §1; settings: Homo sapiens
[6] = compound: COc1cc(-c2ccccc2)c(=O)c(C(C)=O)c(O)c1-c1ccccc1; assay: as §1; settings: Homo sapiens

Q: With CC1(C)N=C2C(c3ccccc3)=CC(=O)C(c3ccccc3)=C2O1 as the molecule, how does the IC50 (PLC-PRF-5) read?
A: 11.6 µM

Q: What about the IC50 (SMMC-7721 [1]) of the same molecule?
A: 4.9 µM

Q: And the IC50 (HepG2)?
A: 12.3 µM

Q: What about the IC50 (L02) of the same molecule?
A: 17.6 µM

Q: What about the IC50 (Hexokinase-2) of the same molecule?
A: 34.6 µM

Q: Which results are given for COc1cccc2c1C(=O)c1c(O)c3c(c(O)c1C2=O)C[C@@](O)(C(=O)CO)C[C@@H]3O[C@H]1C[C@H](N)[C@H](O)[C@H](C)O1 [DOXORUBICIN HYDROCHLORIDE]?
A: IC50 (PLC-PRF-5): 1.9 µM; IC50 (SMMC-7721 [1]): 1.1 µM; IC50 (HepG2): 2.6 µM; IC50 (L02): 13.5 µM

Q: With O=c1[nH]cc(F)c(=O)[nH]1 [FLUOROURACIL] as the molecule, how does the IC50 (PLC-PRF-5) read?
A: 2.8 µM

Q: What about the IC50 (SMMC-7721 [1]) of the same molecule?
A: 2.5 µM

Q: What about the IC50 (HepG2) of the same molecule?
A: 3.6 µM

Q: And the IC50 (L02)?
A: 10.6 µM

Q: How did the IC50 (PLC-PRF-5) turn out when COC1=C(c2ccccc2)C(=O)[C@@](O)(CC(C)=O)C(c2ccccc2)=C1 was run?
A: 1.9 µM

Q: What about the IC50 (SMMC-7721 [1]) of the same molecule?
A: 2.9 µM

Q: What about the IC50 (HepG2) of the same molecule?
A: 2.3 µM

Q: And the IC50 (L02)?
A: 11.2 µM

Q: What about the Activity (SMMC-7721 [2]) of the same molecule?
A: Active

Q: What about the IC50 (Hexokinase-2) of the same molecule?
A: 9.8 µM

Q: What about the Activity (SMMC-7721 [3]) of the same molecule?
A: Active

Q: For COc1cc(-c2ccccc2)c(=O)c(C(C)=O)c(O)c1-c1ccccc1, which IC50 (PLC-PRF-5) is on record?
A: 7.1 µM

Q: And the IC50 (SMMC-7721 [1])?
A: 10.3 µM

Q: And the IC50 (HepG2)?
A: 9.5 µM

Q: What about the IC50 (L02) of the same molecule?
A: 17.8 µM

Q: What about the IC50 (Hexokinase-2) of the same molecule?
A: 31.2 µM

B1: Hexokinase-2 (Homo sapiens), P52789 (protein)
chain: MIASHLLAYFFTELNHDQVQKVDQYLYHMRLSDETLLEISKRFRKEMEKGLGATTHPTAAVKMLPTFVRSTPDGTEHGEFLALDLGGTNFRVLWVKVTDNGLQKVEMENQIYAIPEDIMRGSGTQLFDHIAECLANFMDKLQIKDKKLPLGFTFSFPCHQTKLDESFLVSWTKGFKSSGVEGRDVVALIRKAIQRRGDFDIDIVAVVNDTVGTMMTCGYDDHNCEIGLIVGTGSNACYMEEMRHIDMVEGDEGRMCINMEWGAFGDDGSLNDIRTEFDQEIDMGSLNPGKQLFEKMISGMYMGELVRLILVKMAKEELLFGGKLSPELLNTGRFETKDISDIEGEKDGIRKAREVLMRLGLDPTQEDCVATHRICQIVSTRSASLCAATLAAVLQRIKENKGEERLRSTIGVDGSVYKKHPHFAKRLHKTVRRLVPGCDVRFLRSEDGSGKGAAMVTAVAYRLADQHRARQKTLEHLQLSHDQLLEVKRRMKVEMERGLSKETHASAPVKMLPTYVCATPDGTEKGDFLALDLGGTNFRVLLVRVRNGKWGGVEMHNKIYAIPQEVMHGTGDELFDHIVQCIADFLEYMGMKGVSLPLGFTFSFPCQQNSLDESILLKWTKGFKASGCEGEDVVTLLKEAIHRREEFDLDVVAVVNDTVGTMMTCGFEDPHCEVGLIVGTGSNACYMEEMRNVELVEGEEGRMCVNMEWGAFGDNGCLDDFRTEFDVAVDELSLNPGKQRFEKMISGMYLGEIVRNILIDFTKRGLLFRGRISERLKTRGIFETKFLSQIESDCLALLQVRAILQHLGLESTCDDSIIVKEVCTVVARRAAQLCGAGMAAVVDRIRENRGLDALKVTVGVDGTLYKLHPHFAKVMHETVKDLAPKCDVSFLQSEDGSGKGAALITAVACRIREAGQR
Q: Which Km [4] does the source give for B1 here?
A: 430 µM

Q: What about the Km [5] of the same molecule?
A: 290 µM

Q: What about the Km [6] of the same molecule?
A: 310 µM
